Holding throughout (format): functional, cell-based
Assay [1] has as its system CCRF-CEM. The assay can be described thus: In vitro antiviral activity expressed as IC50 against HIV (CEM cells). To be noted: Homo sapiens.
In another assay the test system is Vero. As to the kind of experiment: In vitro antiviral activity expressed as IC50 against herpes simplex virus type 2 (HSV-2) in vero cells. Conditions: Chlorocebus sabaeus.
For assay [2], the system named is CCRF-CEM. As to the kind of experiment: In vitro antiviral activity expressed as IC50 against HIV (CEM cells); 11-25. To be noted: Homo sapiens.

As a reminder, the IC50 is the midpoint of a concentration-inhibition curve.

≈ marks a conversion by molar mass, not a printed value.

For `Nc1nc(O)c2ncn([C@H]3CC[C@@H](OCP(=O)(O)O)C3)c2n1`, the IC50 with CCRF-CEM [1] and in the assay with Vero was more than 100 µg/mL each time.

The molecule `Nc1nc(O)c2ncn([C@@H]3C=C[C@H](OCP(=O)(O)O)C3)c2n1` showed an IC50 in the assay on CCRF-CEM [1] of 26 µg/mL (≈ 79.5 µM).

Regarding `Nc1nc(O)c2ncn([C@H]3CCC[C@H]3OCP(=O)(O)O)c2n1`, the IC50 is 20 µg/mL (≈ 60.7 µM) in the assay with CCRF-CEM [1] and more than 100 µg/mL in the assay with Vero.

Regarding `CC(COCP(=O)(O)O)n1cnc2c(O)nc(N)nc21` (stereo not drawn), the midpoint of inhibition with CCRF-CEM [1], the IC50, lay at 3 µg/mL (≈ 9.89 µM).

`Nc1nc(O)c2ncn([C@H]3C=C[C@@H](OCP(=O)(O)O)C3)c2n1`: the figures for the 50% inhibitory concentration (IC50) in the assay with CCRF-CEM [1] and in the assay on Vero were 66 µg/mL (≈ 202 µM) and more than 100 µg/mL, respectively.

With `Nc1nc(O)c2ncn([C@H]3CCC[C@@H]3OCP(=O)(O)O)c2n1`, the IC50 with CCRF-CEM [1] and in the assay on Vero was more than 100 µg/mL throughout.

Turning to `CC(Cn1cnc2c(=O)[nH]c(N)nc21)OCP(=O)(O)O` (stereo not drawn), in the assay on CCRF-CEM [2], half-maximal inhibition (IC50) was put at 11 µg/mL (≈ 36.3 µM).

Consider `Nc1nc2c(ncn2CCOCP(=O)(O)O)c(=O)[nH]1` [GS-438], for which the IC50 in the assay on CCRF-CEM [1] was 0.2 µg/mL (≈ 0.692 µM); with Vero, 0.7 µg/mL (≈ 2.42 µM).
